Measured values reported in patent US20120046249A1, “METHODS OF REDUCING THE RISK OF CARDIOVASCULAR DISEASE IN POSTMENOPAUSAL WOMEN” (priority 2008, published 2012).

What was measured:
Type in all cases: in vivo, human
[1] = system: MMP-8/TIMP-1; assay: Median MMP-8/TIMP-1 ratio, further analysis of the 2-year RCT; conditions: women within five years of menopause, at two years
[2] = system: MMP-9; assay: Serum MMP-9 by gelatin zymography, 2-year randomized clinical trial of SDD versus placebo; conditions: postmenopausal osteopenic women with periodontitis, 20 mg doxycycline b.i.d. for 2 years, 92 kDa gelatinase
Text: (§1) Elevated circulating MMP 9 has been associated with increased risk for fatal cardiac events and PM are considered a population vulnerable, due to decreased estrogen levels, to cardiovascular disease.
(§2) Details concerning subject inclusion and exclusion criteria have been published previously (Payne et al., J. Clin. Periodontol. 34:776-787, 2007). Briefly, subjects were 45-70 years of age at telephone screening, postmenopausal, osteopenic at the lumbar spine or femoral neck, and not receiving hormone replacement therapy (HRT). […] The subjects also had to be in good general health without co-morbidities that could have interfered with adherence to the study protocol, planned follow-up or endpoint measurement.
(§3) 113 PM women who completed the randomized clinical trial (RCT) consented at the final (two-year) study visit for the analysis of stored serum samples. 51 subjects received SDD (20 mg doxycycline) and 62 received placebo tablets b.i.d. for 2 years. Serum samples were collected at the baseline, 1-year and 2-year appointments and frozen at −80° C. until analyzed. MMPs were measured by gelatin zymography using denatured type I collagen as a substrate and purified MMP-2 (72 kDa) and MMP-9 (92 kDa) as standards. Gelatinolytic bands were scanned densitometrically. Statistical analyses were performed using Generalized Estimating Equations. Primary analyses were intent-to-treat (ITT). […]

[3] = system: MMP-2; assay: Serum MMP-2 by gelatin zymography, 2-year randomized clinical trial of SDD versus placebo; conditions: per-protocol analysis, p=0.03, SDD minus placebo
Text: as §1, §2, §3

[4] = Serum lipids (commercial laboratory), 2-year RCT of SDD versus placebo; conditions: subgroup: women more than 5 years postmenopausal
Text: (§4) The objective of this study was to determine whether sub-antimicrobial-dose-doxycycline (SDD) can reduce serum inflammatory biomarkers associated with cardiovascular disease (CVD) risk (primary outcome: CRP) in a two-year, randomized controlled clinical trial (RCT) in postmenopausal (PM) women with systemic osteopenia and periodontitis. 113 women who completed the RCT (SDD group: n=51; placebo group: n=62) consented at the final (two-year) study visit for their baseline, one-year and two-year serum samples to be analyzed for serum inflammatory biomarkers. Analyses by ELISA included CRP (high-sensitivity ELISA), IL-6, myeloperoxidase (MPO), IL-1β and TNF-α. Serum lipids (total cholesterol, HDL cholesterol, LDL cholesterol, VLDL cholesterol, and triglycerides) were analyzed by a commercial laboratory. Statistical analyses were performed using Generalized Estimating Equations; primary analyses were intent-to-treat (ITT). Pre-specified subgroup analyses also were performed. All results are presented as ratios of median values (SDD versus placebo) unless otherwise indicated.

[5] = system: CRP; assay: Serum CRP by high-sensitivity ELISA, 2-year RCT of SDD versus placebo; conditions: intent-to-treat
Text: The objective of this study was to determine whether sub-antimicrobial-dose-doxycycline (SDD) can reduce serum inflammatory biomarkers associated with cardiovascular disease (CVD) risk (primary outcome: CRP) in a two-year, randomized controlled clinical trial (RCT) in postmenopausal (PM) women with systemic osteopenia and periodontitis.
as §4, with “113” for “The objective of this study was to determine whether sub-antimicrobial-dose-doxycycline (SDD) can reduce serum inflammatory biomarkers associated with cardiovascular disease (CVD) risk (primary outcome: CRP) in a two-year, randomized controlled clinical trial (RCT) in postmenopausal (PM) women with systemic osteopenia and periodontitis. 113”

C[C@H]1c2cccc(O)c2C(=O)C2=C(O)[C@]3(O)C(=O)C(C(N)=O)=C(O)[C@@H](N(C)C)[C@@H]3[C@@H](O)[C@@H]21 [SDD, 6α-deoxy-5-hydroxytetracycline]
reduction of median MMP-8/TIMP-1 ratio [1]: 49%
MMP-8/TIMP-1, ratio of medians (SDD relative to placebo) ([1]; 95% CI 0.31 to 0.82, p=0.006): 0.51
reduction of serum MMP-9 levels (difference in means, SDD minus placebo) ([2]; intent-to-treat analysis): 28.4 scanning units
reduction of serum MMP-9 levels (difference in means, SDD minus placebo) ([2]; per-protocol analysis): 29.4 scanning units
reduction of serum MMP-2, 2-year values (average) [3]: 16.5 units
VLDL cholesterol, ratio of median values (SDD versus placebo) ([4]; 95% CI 0.76 to 1.00, p=0.06): 0.87
triglycerides, ratio of median values (SDD versus placebo) ([4]; 95% CI 0.76 to 1.01, p=0.06): 0.87
increase in HDL cholesterol over time (difference in means) ([4]; 95% CI 1.17 to 10.81, p=0.01): 5.99 mg/dL
reduction of median CRP levels compared to placebo ([5]; 2-year RCT, serum): 18%
CRP, ratio of median values (SDD versus placebo) ([5]; 95% CI 0.70 to 0.97, p=0.02): 0.82
